Tests used:
Mcl-1 = Mcl-1 (Homo sapiens (Human), UniProt Q07820); assay: TR-FRET binding assay, FITC-Bak peptide and MBP-tagged Mcl-1; details: read-out: Ki for Inhibition of Mcl-1 by TR-FRET assay
Experimental: Compounds are diluted in DMSO in a 16-point, semilog serial dilution scheme. […] The plate was mixed and incubated for 3 hours at room temperature. […] TR-FRET signal is plotted and IC50 and Ki values are calculated in the same manner as the fluorescence polarization anisotropy based competition assays.

[1] = tested on: H929 human cancer cell lines; assay: Cellular viability / proliferation (Cell TiterGlo, 72 h); assay type: cell-based; details: Homo sapiens, NCI-H929, 72 h, read-out: GI50 on cellular proliferation of H929 human cancer cell lines, H929 cells, 72 h, Cell TiterGlo, 10% FBS
Outline: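 1,000 cells/well, 10% FBS medium; compound added at 24 h, 2-fold dilutions from 50 μM top, DMSO <1% final. 72 h exposure, CellTiterGlo 30 min RT dark, luminescence read. IC50 by 4-parameter fit.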

Sequence of Mcl-1 (Q07820 172-327): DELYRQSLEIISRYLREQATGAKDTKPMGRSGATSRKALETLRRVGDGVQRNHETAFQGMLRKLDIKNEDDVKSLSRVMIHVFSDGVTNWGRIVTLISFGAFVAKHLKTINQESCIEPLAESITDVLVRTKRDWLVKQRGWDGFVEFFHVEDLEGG

Compound	Ki (Mcl-1) [nM]	GI50 [1] [nM]
Cc1cc(OCCCc2c3n(c4c(-c5c(C)nn(C)c5C)c(Cl)ccc24)[C@H](C)CN(c2cn(CCN(C)C)c4ccc(C(=O)O)cc24)C3=O)cc(C)c1Cl [Example 510, (R)-3-(7-Chloro-10-(3-(4-chloro-3,5-dimethylphenoxy)propyl)-4-methyl-1-oxo-6-(1,3,5-trimethyl-1H-pyrazol-4-yl)-3,4-dihydropyrazino[1,2-a]indol-2(1H)-yl)-1-(2-(dimethylamino)ethyl)-1H-indole-5-carboxylic acid]	< 0.2	240
Cc1cc(C)nc(Cn2c(C(=O)O)cc3cc(C)cc(N4C[C@@H](C)n5c(c(CCCOc6cc(C)c(Cl)c(C)c6)c6ccc(Cl)c(-c7c(C)nn(C)c7C)c65)C4=O)c32)c1 [Example 599, (R)-7-(7-chloro-10-(3-(4-chloro-3,5-dimethylphenoxy)propyl)-4-methyl-1-oxo-6-(1,3,5-trimethyl-1H-pyrazol-4-yl)-3,4-dihydropyrazino[1,2-a]indol-2(1H)-yl)-1-((4,6-dimethylpyridin-2-yl)methyl)-5-methyl-1H-indole-2-carboxylic acid]	< 0.2	< 200
Cc1cc(OCCCc2c3n(c4c(-c5c(C)nn(C)c5C)c(Cl)ccc24)[C@H](C)CN(c2cc(COCCN4CCOCC4)cc4cc(C(=O)O)n(C)c24)C3=O)cc(C)c1Cl [Example 693, (R)-7-(7-chloro-10-(3-(4-chloro-3,5-dimethylphenoxy)propyl)-4-methyl-1-oxo-6-(1,3,5-trimethyl-1H-pyrazol-4-yl)-3,4-dihydropyrazino[1,2-a]indol-2(1H)-yl)-1-methyl-5-((2-morpholinoethoxy)methyl)-1H-indole-2-carboxylic acid]	< 0.2	210
COCCOc1cc(N2C[C@@H](C)n3c(c(CCCOc4cc(C)c(Cl)c(C)c4)c4ccc(Cl)c(-c5c(C)nn(C)c5C)c43)C2=O)c2c(c1)c(C(=O)O)cn2Cc1cc(C)cc(C)n1 [Example 652, (R)-7-(7-chloro-10-(3-(4-chloro-3,5-dimethylphenoxy)propyl)-4-methyl-1-oxo-6-(1,3,5-trimethyl-1H-pyrazol-4-yl)-3,4-dihydropyrazino[1,2-a]indol-2(1H)-yl)-1-((4,6-dimethylpyridin-2-yl)methyl)-5-(2-methoxyethoxy)-1H-indole-3-carboxylic acid]	0.28	370
Cc1cc(OCCCc2c3n(c4c(-c5c(C)nn(C)c5C)c(Cl)ccc24)[C@H](C)CN(c2cn(Cc4ccc(F)c(F)c4)c4ccc(C(=O)O)cc24)C3=O)cc(C)c1Cl [Example 645, (R)-3-(7-chloro-10-(3-(4-chloro-3,5-dimethylphenoxy)propyl)-4-methyl-1-oxo-6-(1,3,5-trimethyl-1H-pyrazol-4-yl)-3,4-dihydropyrazino[1,2-a]indol-2(1H)-yl)-1-(3,4-difluorobenzyl)-1H-indole-5-carboxylic acid]	3.3	3700
COC1CCN(Cc2cc(N3C[C@@H](C)n4c(c(CCCOc5cc(C)c(Cl)c(C)c5)c5ccc(Cl)c(-c6c(C)nn(C)c6C)c54)C3=O)c3c(c2)cc(C(=O)O)n3C)CC1 [Example 649, (R)-7-(7-chloro-10-(3-(4-chloro-3,5-dimethylphenoxy)propyl)-4-methyl-1-oxo-6-(1,3,5-trimethyl-1H-pyrazol-4-yl)-3,4-dihydropyrazino[1,2-a]indol-2(1H)-yl)-5-((4-methoxypiperidin-1-yl)methyl)-1-methyl-1H-indole-2-carboxylic acid]	< 0.2	< 200
COCCOC1CCN(Cc2cc(N3C[C@@H](C)n4c(c(CCCOc5cc(C)c(Cl)c(C)c5)c5ccc(Cl)c(-c6c(C)nn(C)c6C)c54)C3=O)c3c(c2)cc(C(=O)O)n3C)CC1 [Example 650, (R)-7-(7-chloro-10-(3-(4-chloro-3,5-dimethylphenoxy)propyl)-4-methyl-1-oxo-6-(1,3,5-trimethyl-1H-pyrazol-4-yl)-3,4-dihydropyrazino[1,2-a]indol-2(1H)-yl)-5-((4-(2-methoxyethoxy)piperidin-1-yl)methyl)-1-methyl-1H-indole-2-carboxylic acid]	< 0.2	210
